Data as given in the METLIN SMRT retention time set (Domingo-Almenara et al. 2019).

Assay: gradient 5% acetonitrile 3 min, to 50% in 2 min, to 85% in 15 min, held 3 min, 100 µL/min
Conditions: column: Zorbax Extend-C18 2.1 x 50 mm; eluents: water / acetonitrile, 0.1% formic acid
In short: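 Each retention time is based on an adduct peak selected computationally and verified by manual inspection. Measurements used HPLC–quadrupole time-of-flight mass spectrometry in positive and negative ionization mode on mixtures of ~100 pure standards. Chromatography ran on a Zorbax Extend-C18 column (2.1 × 50 mm, 1.8 μm) at 100 μL/min with water and acetonitrile, each containing 0.1% formic acid, and dead and dwell volumes of 40 μL and 900 μL.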

| Compound | RP-LC retention time |
| --- | --- |
| COC(=O)[C@H]1[C@H]2C[C@H]3c4[nH]c5ccccc5c4CCN3C[C@H]2CC[C@@H]1O | 671 s |
| CCOc1ccc(C(=O)N2CCCC2c2nc(-c3ccc(F)cc3F)no2)cc1 (stereo unspecified) | 1010 s |
| O=C1NC2(CCN(C(=O)NCCc3ccccc3)CC2)Nc2cc(Cl)ccc21 | 766 s |
| Cc1cc(C)n2c(Nc3cccc(C(F)(F)F)c3)c(-c3ccc(F)cc3)nc2n1 | 829 s |
| COCCn1cc(C(=O)N2CCc3ccccc32)c2nn(-c3ccccc3)c(=O)c-2c1 | 789 s |
| COC[C@@H]1CN(S(=O)(=O)c2ccccc2)C[C@H]1c1nc(C)no1 | 803 s |
| CCN1CCN(c2nnc(-c3nc(C4CC4)no3)c3ccccc23)CC1 | 622 s |
| COc1ccc(N2CCN(C(=O)C3CCCN(c4ccc(-c5ccccc5)nn4)C3)CC2)cc1 (stereo unspecified) | 711 s |
| Cc1cc(C)cc(NC(=O)N(C)CC2CCOCC2)c1 | 776 s |
| Cc1cccn2cc(C(=O)NCc3ccc4c(c3)OCO4)nc12 | 679 s |
| Cc1noc(C)c1S(=O)(=O)NCCc1noc(-c2ccccc2)n1 | 848 s |
| Cc1nc2cc(-c3noc(CNC(=O)Cc4ccc(Cl)cc4)n3)ccc2o1 | 858 s |
| Cc1ccc2c(n1)nn1c(C)cc(C)nc21 | 557 s |
| Cc1nc2c(c(=O)n1CC(=O)NCCC1=CCCCC1)CCN(Cc1ccccc1)C2 | 666 s |
| O=c1c2sccc2n(Cc2nc(-c3cccc(Br)c3)no2)c(=O)n1-c1ccc(F)cc1 | 1080 s |
| O=C(CN(C(=O)c1ccc(F)c(Cl)c1)C1CCCCC1)N1CCNCC1 | 659 s |
| CC(C)N1CCCn2cc(S(=O)(=O)Nc3ccc(Oc4ccccc4)cc3)cc2C1=O | 909 s |
| CCn1cc(-c2nc(CC(=O)NCc3ccc(C)o3)cs2)c2cccnc21 | 912 s |
| CC1Oc2ccc(S(=O)(=O)N3CCC(C(=O)NC4CCCC4)CC3)cc2NC1=O (stereo unspecified) | 740 s |
| CCOC(=O)c1c(C)[nH]c(C)c1S(=O)(=O)N1CCC(C(=O)Nc2ccc3c(c2)OCO3)CC1 | 774 s |
| O=S(=O)(c1ccccc1)N1CCN(c2cnn3c(C4CC4)nnc3c2)CC1 | 698 s |
| CCN1C=C(C(=O)OCc2cc(F)cc(F)c2)C(C)=NS1(=O)=O | 926 s |
| O=C(NCC(O)(c1ccccc1)C(F)(F)F)c1cnccn1 (stereo unspecified) | 710 s |

| Compound | RP-LC retention time |
| --- | --- |
| COc1ccc(NC(=O)c2cc(C)n3nccc3n2)cc1Cl | 942 s |
| Cc1ccccc1-c1noc(CN2C(=O)COc3cc(Cl)ccc32)n1 | 1150 s |
| CN(C)CC(=O)N1CC(c2nc(-c3ccc(F)cc3)no2)C2(CCOCC2)C1 (stereo unspecified) | 572 s |
| CCCn1cc(CCNS(=O)(=O)c2ccc(C)c(Cl)c2)c2cccnc21 | 939 s |
| Cc1cc(=O)n(CC(=O)Nc2ccc(Cl)cc2)c(N2CCc3ccccc3C2)n1 | 855 s |
| CCNS(=O)(=O)c1cccnc1Nc1cccc(C)c1 | 998 s |
| O=C(COc1ccc(Cl)cc1)Nc1nc(-c2cccc3ccccc23)cs1 | 1220 s |
| Cn1cnc(S(=O)(=O)N2CCC(c3noc(-c4ccccc4)n3)C2)c1 (stereo unspecified) | 748 s |
| O=C(CN1C(=O)C2CCCCN2c2ccc(S(=O)(=O)N3CCCC3)cc21)NC1CCCC1 (stereo unspecified) | 761 s |
| CC(NC(=O)c1ccc2c(c1)nc1n2CCN(Cc2ccccc2)C1=O)c1ccccn1 (stereo unspecified) | 622 s |
| COc1ccc(-c2nnc(-c3ccc(C)c(S(=O)(=O)N4CCCCC4)c3)o2)cc1OC | 1060 s |
| Cc1csc(-c2cc(S(=O)(=O)NC(C)C)c(C)n2C)n1 | 852 s |
| CC(C)(C)CCN1CCC(F)(c2nc(-c3ccccc3)no2)CC1 | 789 s |
| COCc1nc(C2CCN(C(=O)NCC(C)C)C2)no1 (stereo unspecified) | 636 s |
| Cc1nc(-c2csc(S(=O)(=O)N3CCC(C(=O)Nc4cccc(Cl)c4)CC3)c2)no1 | 1000 s |
| Cc1oc(-c2ccc(Cl)cc2)nc1CN1CCC(C(=O)NCc2ccccn2)CC1 | 584 s |
| Cc1cccc(N2CCN(C(=O)CN3CCN(Cc4ccc(F)cc4Cl)C3=O)CC2)c1 | 957 s |
| COc1ccc2c(c1)C=C(C(=O)NCc1ccccc1OC)C=CO2 | 944 s |
| CCCN1C(=O)COc2ccc(-c3noc(-c4n[nH]c5c4CCCC5)n3)cc21 | 1000 s |
| O=C(NCc1cccs1)c1ccc2ncnc(N3CCCC3)c2c1 | 617 s |
| COc1ccc(-c2nc3cc(C)ccn3c2Nc2ccccc2C)cc1 | 743 s |
| CCn1cc(-c2nc(C)c(C(=O)NCc3ccccc3)s2)c2cccnc21 | 784 s |
| CCNC(=O)c1nc(C(=O)NC(C)c2ccc(C)cc2)cs1 (stereo unspecified) | 843 s |

| Compound | RP-LC retention time |
| --- | --- |
| O=C(NCc1noc(-c2ccco2)n1)c1coc(C2CC2)n1 | 736 s |
| Cc1ccc(OCc2nc(C3CN(C(=O)C4(c5ccccc5)CC4)C3)no2)cc1 | 1030 s |
| Cc1ccc(NC(=O)Nc2c(Cl)cccc2Cl)cn1 | 905 s |
| CC(C)(C)NC(=O)N1CC(n2cc(C(=O)N3CCOCC3)nn2)C1 | 646 s |
| COc1ccc(C(=O)Nc2nc(-c3ccc4c(c3)NC(=O)C(C)O4)cs2)cc1OC (stereo unspecified) | 864 s |
| CCOc1ccccc1NC(=O)N1CCN(C(=O)N2C[C@H]3C[C@@H](C2)[C@H]2CCCC(=O)N2C3)CC1 | 687 s |
| O=C(c1ccccc1)N1CCN(c2nnc3ccccn23)CC1 | 608 s |
| CCc1noc(-c2ccc(-n3cnc(C(=O)NCC(C)C)c3)nc2)n1 | 814 s |
| CCc1nc2cc3c(cc2n1CC(=O)NC(C)c1ccc2c(c1)OCCCO2)OCCO3 (stereo unspecified) | 628 s |
| CC(=O)N1c2ccc(S(=O)(=O)N3CCCC3)cc2CC1C(=O)NCCN(C)Cc1ccccc1 (stereo unspecified) | 619 s |
| Cn1c(-c2cccc(C(=O)NCc3cc(F)ccc3F)c2)nc2cccnc21 | 726 s |
| COC(=O)Nc1nc(CC(=O)NCc2ccco2)cs1 | 606 s |
| CCC(=O)N(C)CCc1noc(-c2ccc(C(=O)NC3CCCCCC3)cc2)n1 | 794 s |
| O=C(NC1CCCC1)c1ccc2c(c1)CCN2C(=O)C1CC1 | 751 s |
| Cc1cccc(C(=O)N2CCC3(CC2)NC(=O)c2cc(C)ccc2N3C)c1 | 805 s |
| CCn1cc(CCNC(=O)c2ccccc2Br)c2cccnc21 | 700 s |
| O=C(NCc1cc(F)cc(F)c1)C1CCN(c2ncnc3c2oc2ccccc23)CC1 | 752 s |
| CC(C)CN1C(=O)c2cccn2CC1CNC(=O)c1cccn1C (stereo unspecified) | 733 s |
| CC(C)Oc1ccc(-c2noc(Cn3ncn4nc(-c5cccs5)cc4c3=O)n2)cc1 | 1150 s |
| CCC1CCCCN1C(=O)c1cnc2nc(C)ccc2c1Nc1cc(C)cc(C)c1 (stereo unspecified) | 722 s |
| O=C(Cn1cccc(S(=O)(=O)N2CCCCCC2)c1=O)N1CCCc2ccccc21 | 850 s |
| COc1ccccc1-c1noc(C2CCCN2C(=O)C2CCC2)n1 (stereo unspecified) | 831 s |
| CCSc1cccc(C(=O)N2CC(=O)Nc3ccccc32)c1 | 756 s |

| Compound | RP-LC retention time |
| --- | --- |
| COc1ccc2[nH]c(=O)c(CCC(=O)NCCc3ccccn3)cc2c1 | 576 s |
| CCOC(=O)c1cc(C)nc2c1c(=O)n(Cc1ccccc1C)c(=O)n2C | 872 s |
| CCOCCCNC(=O)C(C)n1c(=O)c(C(F)(F)F)nc2ccccc21 (stereo unspecified) | 929 s |
| CC(C)C(=O)N1CCc2cc(C(N)=O)ccc21 | 637 s |
| N#Cc1ccc2ccn(CC(=O)N3CCCc4ccccc43)c2c1 | 963 s |
| N#Cc1ccc(C(=O)OCc2nc3ccccc3s2)cc1 | 936 s |
| O=C(NCc1ccco1)c1ccc2c(c1)N(C(=O)c1ccc(F)cc1)CC2 | 823 s |
| CCC(C)NC(=O)c1nccnc1NC(=O)c1ccccc1 (stereo unspecified) | 899 s |
| CSc1ccc(-c2nc3cnccn3c2Nc2ccc3c(c2)OCO3)cc1 | 890 s |
| Cc1nc2cccnc2n1C1CCN(C(=O)Nc2ccccc2Cl)CC1 | 635 s |
| CCN1C(=O)c2cccnc2Sc2cc(CNC(=O)c3cccc4[nH]ccc34)ccc21 | 721 s |
| Cc1nc(NC(=O)c2ccccc2)n[nH]1 | 583 s |
| O=C(Cc1ccc(NC(=O)C2CC2)cc1)NCc1cccs1 | 659 s |
| CC(C)n1cnc(S(=O)(=O)N2CCC(C(=O)NCCC3=CCCCC3)CC2)c1 | 804 s |
| O=C(CN1CCN(C(=O)Nc2ccc(Br)cc2)CC1=O)NCCC1=CCCCC1 | 834 s |
| Cc1ccc(-c2cn3c(CC(=O)NCC(C)c4ccccc4)csc3n2)cc1C (stereo unspecified) | 930 s |
| CCCn1cc(C2=CCN(C(=O)NCc3ccc(OC)cc3)CC2)c2cccnc21 | 888 s |
| NC(=O)C1CCN(C(=O)CCc2nnc3c4cc(-c5ccc(Cl)cc5)nn4ccn23)CC1 | 671 s |
| COCc1cc(=O)n(CC(=O)N2CCN(c3ccc(F)cc3)CC2)c(N2CCOCC2)n1 | 819 s |
| O=C(NCc1cccc(F)c1)c1ccc2c(c1)Sc1ncccc1C(=O)N2C1CC1 | 823 s |
| Cc1noc(C2CN(C(=O)c3cc4ccccc4[nH]3)C2)n1 | 675 s |
| O=C(c1ccc2c(c1)OCO2)N1CCC2(CC1)NC(=O)N(Cc1ccc(Cl)cc1)C2=O | 811 s |
